Measured values: patent US20260216216A1, “(N-ALKYLDIHYDROL-2H-OXAZINYL)-CANNABIDIOL AS ANTI-PROLIFERATIVE AGENT AND PROCESS FOR PREPARATION THEREOF” (COUNCIL OF SCIENTIFIC AND INDUSTRIAL RESEARCH, priority 2022, published 2026)
Read-outs that look alike come from different tables or passages of the source.

Columns and labels:
[1] = tested on: MCF-7 (breast cancer) cell line; experiment: SRB in-vitro cytotoxicity assay, MCF-7; conditions: Homo sapiens
Description: (§1) All the ring annulated analogues of cannabinoid were evaluated for their cytotoxicity against number of human cancer cell lines. To evaluate the in-vitro cytotoxicity, a sulphorhodamine B (SRB) assay was carried out. SRB is a negatively charged pink aminoxanthine dye that binds to the basic amino acid of cells in mildly acidic conditions and is removed in basic conditions. […] When cells reached 60-70% confluency, trypsinized and seeded in 96 well plates according to their inoculation density and incubated for 24 hours to attain their proper morphology. Next-day cells were again incubated for 48 hours with test compounds or paclitaxel (positive control). Next, cells were fixed with 50% of ice-cold TCA for 1 hours, washed with distilled water, and kept for air drying. Air-dried plates were then stained with 0.4% SRB dye for 30 minutes and subsequently with water and 1% v/v glacial acetic acid were then kept for air drying. […] The viability of cells is measured based on bound dye after fixation, which is measured by absorbance at 540 nm.

[2] = tested on: A549 (lung cancer) cell line; experiment: SRB in-vitro cytotoxicity assay, A549; conditions: Homo sapiens
Description: as §1

in vitro = conditions: human
Description: as §1

[3] = tested on: HEK-293 (normal cell lines); experiment: SRB in-vitro cytotoxicity assay, HEK-293; conditions: Homo sapiens, HEK293, read-out: inhibition against HEK-293 cell lines
Description: as §1

[4] = tested on: PC-3 (prostate cancer) cell line; experiment: SRB in-vitro cytotoxicity assay, PC-3; conditions: Homo sapiens
Description: as §1

[5] = tested on: Mia-PaCa (pancreatic cancer) cell line; experiment: SRB in-vitro cytotoxicity assay, Mia-PaCa; conditions: Homo sapiens
Description: as §1

[6] = tested on: U251 (glioblastoma) cell line; experiment: SRB in-vitro cytotoxicity assay, U251; conditions: Homo sapiens
Description: as §1

[7] = tested on: HCT-116 (colorectal cancer) cell line; experiment: SRB in-vitro cytotoxicity assay, HCT-116; conditions: Homo sapiens
Description: as §1

CC(=O)O[C@H]1C(=O)[C@@]2(C)[C@H]([C@H](OC(=O)c3ccccc3)[C@]3(O)C[C@H](OC(=O)[C@H](O)[C@@H](NC(=O)c4ccccc4)c4ccccc4)C(C)=C1C3(C)C)[C@]1(OC(C)=O)CO[C@@H]1C[C@@H]2O [Paclitaxel, paclitaxel, reference compound]
> 70%: inhibition at 20 µM ([1]; MCF7, 48 h, read-out: Cytotoxicity (in vitro cell inhibition) MCF-7) | inhibition at 20 µM ([1]; MCF7, read-out: inhibition against MCF-7 cell lines) | inhibition at 20 µM ([2]; A549, 48 h, read-out: Cytotoxicity (in vitro cell inhibition) A549) | inhibition at 20 µM ([2]; A549, read-out: inhibition against A549 cell lines) | inhibition at 48 h, 20 µM (in vitro) | inhibition at 20 µM [3] | inhibition at 20 µM ([4]; 48 h, read-out: Cytotoxicity (in vitro cell inhibition) PC3) | inhibition at 20 µM ([4]; PC-3, read-out: inhibition against PC3 cell lines) | inhibition at 20 µM ([5]; MIA PaCa-2, 48 h, read-out: Cytotoxicity (in vitro cell inhibition) Mia-PaCa) | inhibition at 20 µM ([5]; MIA PaCa-2, read-out: inhibition against Mia-PaCa cell lines) | inhibition at 20 µM ([6]; U-251, 48 h, read-out: Cytotoxicity (in vitro cell inhibition) U251) | inhibition at 20 µM ([6]; U-251, read-out: inhibition against U251 cell lines) | inhibition at 20 µM ([7]; HCT-116, 48 h, read-out: Cytotoxicity (in vitro cell inhibition) HCT-116) | inhibition at 20 µM ([7]; HCT-116, read-out: inhibition against HCT-116 cell lines)
